Source: patent US20080207605A1, “Combination therapy for the treatment of liver diseases” (priority 2007, published 2008)

Legend:
male C57B1/6 mice [1] = experiment: TNF-α model of liver injury (TNFα/D-Gln), plasma ALT activity; assay type: in vivo; conditions: PO by gavage 30 minutes before D-Gln/TNFα insult; blood 6 hours later; average from 4 studies
Protocol: (§1) TNF-α is a cytokine that is implicated in inducing liver injury in a variety of acute and chronic liver diseases such as chronic HCV and acute liver failure. An exemplary in vivo model to test pharmacological agents against TNF-α induced injury is the TNF-α/D-Gal model of liver injury in mice. In this model, mice are treated with TNF-α/D-Gal and compound is administered to evaluate its ability to protect against liver damage. The compound is administered either before, at the time of or after the treatment with TNF-α/D-Gal, and followed for a period of approximately 6 hours. Allowing this model to persist past 6 hours is a variation used to determine the improved survival afforded by compound treatment.
(§2) In vivo efficacy of RO-113-0830 was assessed using male C57B1/6 mice (Simonsen Labs) in two well-established models of liver damage. The mice were allowed to acclimate for at least three days.
In the TNF-α model of liver injury, D-Galactosamine (D-Gln) (800 mg/kg) and TNFα (20 or 40 μg/kg) were injected IP. RO-113-0830 (0.001-30 mg/kg) was administered PO by gavage 30 minutes before insult. Six hours later, animals were anesthetized with Nembutal (50 mg/kg IP), and blood was taken by cardiac puncture. Plasma ALT activity was determined using a kit from Sigma-Aldrich.

male C57B1/6 mice [2] = experiment: TNF-α model (TNFα/D-Gln), 24 hour survival; assay type: in vivo; conditions: TNFα/D-Gln insult; average from 3 studies; p=0.03 vs control (27±7.3%)
Protocol: as §1, §2
To determine a benefit on survival, TNF-α model, D-Galactosamine (D-Gln) (800 mg/kg) and TNF-α (20 or 40 μg/kg) were injected IP, and mice were allowed to survive for 24 hours post insult. All morbid mice were euthanized with 125 mg/kg of Nembutal IP. The average 24 hour survival from 3 studies was 27±7.3% and. 55±7.6% (p=0.03) in the TNFα/D-Gln control mice and RO-113-0830-treated mice, respectively.

male C57B1/6 mice [3] = experiment: Fas driven model of liver damage (Jo-2 antibody), plasma ALT activity; assay type: in vivo; conditions: 10 mg/kg PO; 6 hours after Jo-2 IV; average of 2 studies; p<0.05 in each study
Protocol: as §2
In a Fas driven model of liver damage, an activating antibody to Fas (Jo-2) was administered IV. Six hours later, animals were anesthetized with Nembutal (50 mg/kg IP), and blood was taken by cardiac puncture. Plasma ALT activity was determined using a kit from Sigma-Aldrich.

full-length HCV replicon = experiment: HCV RNA replicon antiviral evaluation assay; assay type: cell-based, Hepatitis C virus; conditions: 72 hr; HCV RNA replicon levels by TaqMan RT-PCR; read-out: EC50 (concentration inhibition virus replication by 50%)
Protocol: The assay was conducted as described by Pietschmann, T. et al., supra.
Human interferon alpha-2b was included in each run as a positive control compound. Subconfluent cultures of the ET line were plated out into 96-well plates that were dedicated for the analysis of cell numbers (cytotoxicity) or antiviral activity and the next day drugs were added to the appropriate wells. Cells were processed 72 hr later when the cells were still sub-confluent. HCV RNA replicon levels and the toxic concentration of drug that reduces cell numbers, as indicated by host cell ribosomal RNA (rRNA) levels, were assessed by TaqMan RT-PCR. The EC50 (concentration inhibition virus replication by 50%), IC50 (concentration decreasing cell viability by 50%) and S150 (selective index: IC50/EC50) values were calculated.

[4] = test system: Huh7 human hepatoma cell line (the 21-5 cell line); conditions: read-out: IC50 for cytotoxicity (concentration decreasing cell viability by 50%); 72 hr; host cell rRNA levels by TaqMan RT-PCR
Excerpt: Cells were processed 72 hr later when the cells were still sub-confluent.

C57/BL6 wild-type mice = experiment: Bile duct ligation model of liver fibrosis; assay type: in vivo; conditions: 10 mg/kg by gavage once a day
Protocol: The bile duct ligation model is a well characterized model of liver fibrosis. Briefly, C57/BL6 wild-type mice 6 to 8 weeks of age were subjected to bile duct ligation (BDL) for 14 days: Sham-operated wild type mice were used as controls. Either RO 113-0830 or CMC (carboxymethylcellulose) were administered by gavage in a dose of 10 mg/kg body weight once a day. Hepatocyte apoptosis was quantified by the TUNEL assay and immunofluorescence for activated caspases 3/7. Liver injury was assessed by histopathology, and quantification of bile infarcts. Hepatic fibrosis was assessed by Sirius red staining and quantitative morphometry. Real-time polymerase chain reaction (PCR) was used to measure mRNA transcripts for collagen 1alpha (I) and alpha-smooth muscle actin.

O=C(NO)C1(CS(=O)(=O)c2ccc(Oc3ccc(Cl)cc3)cc2)CCOCC1 [RO-113-0830]
ED50 for decrease of plasma ALT activity (male C57B1/6 mice [1]): 0.26 ± 0.08 mg/kg
24 hour survival (male C57B1/6 mice [2]): 55±7.6%
reduction of Fas-induced elevation in plasma ALT activity (male C57B1/6 mice [3]): 50%
EC50 (full-length HCV replicon): 0.07 µM
IC50 [4]: ~25 µM
reduction of Sirius red staining of hepatic collagen (C57/BL6 wild-type mice; 14 days of BDL): 3 fold
reduction in the number of bile infarcts vs vehicle treated BDL mice (C57/BL6 wild-type mice; 14 days of BDL, histologic examination): > 70%
decrease in TUNEL-positive hepatocytes vs vehicle (C57/BL6 wild-type mice; 14 days of BDL, p<0.01): 3 fold
decrease in caspase 3/7-positive hepatocytes vs vehicle (C57/BL6 wild-type mice; 14 days of BDL, p<0.01): 5 fold
reduction of hepatic alpha-smooth muscle actin mRNA vs vehicle-treated BDL animals (C57/BL6 wild-type mice; 14 days of BDL, real-time PCR): > 60%
reduction of hepatic collagen I mRNA vs vehicle-treated BDL animals (C57/BL6 wild-type mice; 14 days of BDL, real-time PCR): > 60%
overall animal survival following 14 days of BDL (C57/BL6 wild-type mice; p<0.05): significantly enhanced
